Measurements as given in ChEMBL document CHEMBL1201862, “PubChem BioAssay data set” (2004).
Calls of active or inactive are those of the source.

Experiments:
[1] = target: T1, Voltage-gated N-type calcium channel alpha-1B subunit/Amyloid beta A4 precursor protein-binding family A member 1 (Homo sapiens, UniProt Q00975+Q02410); assay type: protein assay
Vero = test: viability of Vero cells under compound – cytotoxicity control for flavivirus capping enzyme inhibitors (AID 588742); assay type: functional; conditions: Chlorocebus sabaeus
[2] = target: Eukaryotic translation initiation factor 4E (Mus musculus, UniProt P63073); test: blockers of eIF4G binding by eIF4E – biochemical, TR-FRET, dose response (AID 855); assay type: functional;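 further: potency for disrupting eIF4E binding to eIF4GI seen as loss of FRET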
Chain of Eukaryotic translation initiation factor 4E (P63073 whole entry): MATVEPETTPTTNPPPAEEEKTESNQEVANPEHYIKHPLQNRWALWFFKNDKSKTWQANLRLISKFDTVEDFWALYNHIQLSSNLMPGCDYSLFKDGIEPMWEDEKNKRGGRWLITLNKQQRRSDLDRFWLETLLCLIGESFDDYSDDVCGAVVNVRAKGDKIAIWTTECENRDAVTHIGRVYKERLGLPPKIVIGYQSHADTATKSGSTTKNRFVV

[3] = target: T2, Mannose-6-phosphate isomerase (Homo sapiens, UniProt P34949); test: MPI inhibition at elevated mannose 6-phosphate – biochemical, fluorescence intensity, high mannose 6-phosphate, primary screen (AID 1220)
T2 sequence (P34949 whole entry): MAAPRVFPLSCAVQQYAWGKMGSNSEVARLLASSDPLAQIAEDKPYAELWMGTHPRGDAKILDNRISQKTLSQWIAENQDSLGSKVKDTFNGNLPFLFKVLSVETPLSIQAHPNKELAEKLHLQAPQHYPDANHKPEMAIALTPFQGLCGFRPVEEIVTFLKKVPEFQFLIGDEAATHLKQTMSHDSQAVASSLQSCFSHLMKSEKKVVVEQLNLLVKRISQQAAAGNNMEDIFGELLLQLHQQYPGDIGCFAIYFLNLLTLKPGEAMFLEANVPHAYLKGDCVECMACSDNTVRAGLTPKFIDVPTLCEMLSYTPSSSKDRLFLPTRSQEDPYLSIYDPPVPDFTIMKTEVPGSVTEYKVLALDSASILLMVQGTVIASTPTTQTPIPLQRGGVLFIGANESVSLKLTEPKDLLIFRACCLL

[4] = target: Induced myeloid leukemia cell differentiation protein Mcl-1 (Homo sapiens, UniProt Q07820); assay type: functional
Genome polyprotein = Genome polyprotein (dengue virus type 2, UniProt P29990); test: flavivirus cap methylation enzyme inhibition – biochemical, confirmation dose response, primary screen (AID 588689); assay type: functional
Chain of Genome polyprotein (P29990 2492-3391 limits assumed): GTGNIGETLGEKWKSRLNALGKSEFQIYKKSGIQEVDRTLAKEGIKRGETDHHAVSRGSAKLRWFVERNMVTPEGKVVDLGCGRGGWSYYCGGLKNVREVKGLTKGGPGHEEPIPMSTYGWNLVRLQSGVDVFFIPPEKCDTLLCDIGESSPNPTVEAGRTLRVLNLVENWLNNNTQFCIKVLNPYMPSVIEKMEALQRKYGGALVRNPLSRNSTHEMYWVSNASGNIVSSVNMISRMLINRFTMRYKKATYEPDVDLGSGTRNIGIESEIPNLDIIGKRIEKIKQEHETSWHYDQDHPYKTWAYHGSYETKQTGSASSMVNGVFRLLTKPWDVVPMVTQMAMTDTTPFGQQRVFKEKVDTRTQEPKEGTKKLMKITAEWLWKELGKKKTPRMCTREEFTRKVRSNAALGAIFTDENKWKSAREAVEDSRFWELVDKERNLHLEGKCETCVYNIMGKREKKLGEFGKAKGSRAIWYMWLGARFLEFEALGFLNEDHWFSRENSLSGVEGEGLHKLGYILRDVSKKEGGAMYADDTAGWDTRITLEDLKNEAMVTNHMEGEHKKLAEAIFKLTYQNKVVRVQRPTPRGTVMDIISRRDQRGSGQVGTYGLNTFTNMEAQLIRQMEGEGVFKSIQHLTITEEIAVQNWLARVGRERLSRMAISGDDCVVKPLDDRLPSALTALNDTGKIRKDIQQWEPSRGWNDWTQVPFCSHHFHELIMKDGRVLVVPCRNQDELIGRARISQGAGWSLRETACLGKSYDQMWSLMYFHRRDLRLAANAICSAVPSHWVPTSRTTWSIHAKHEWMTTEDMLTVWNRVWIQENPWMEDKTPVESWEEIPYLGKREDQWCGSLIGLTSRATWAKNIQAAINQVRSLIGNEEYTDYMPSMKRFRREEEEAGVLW

[5] = target: T1, Voltage-gated N-type calcium channel alpha-1B subunit/Amyloid beta A4 precursor protein-binding family A member 1; assay type: protein assay; remark: listed apart in the source
[6] = target: Glucose-6-phosphate 1-dehydrogenase (Homo sapiens, UniProt P11413); test: inhibition of Homo sapiens G6PD, dose series – biochemical, fluorescence, selectivity assay for P. falciparum G6PD inhibitor project, dose response (AID 504792); assay type: functional
Chain of Glucose-6-phosphate 1-dehydrogenase (P11413 whole entry): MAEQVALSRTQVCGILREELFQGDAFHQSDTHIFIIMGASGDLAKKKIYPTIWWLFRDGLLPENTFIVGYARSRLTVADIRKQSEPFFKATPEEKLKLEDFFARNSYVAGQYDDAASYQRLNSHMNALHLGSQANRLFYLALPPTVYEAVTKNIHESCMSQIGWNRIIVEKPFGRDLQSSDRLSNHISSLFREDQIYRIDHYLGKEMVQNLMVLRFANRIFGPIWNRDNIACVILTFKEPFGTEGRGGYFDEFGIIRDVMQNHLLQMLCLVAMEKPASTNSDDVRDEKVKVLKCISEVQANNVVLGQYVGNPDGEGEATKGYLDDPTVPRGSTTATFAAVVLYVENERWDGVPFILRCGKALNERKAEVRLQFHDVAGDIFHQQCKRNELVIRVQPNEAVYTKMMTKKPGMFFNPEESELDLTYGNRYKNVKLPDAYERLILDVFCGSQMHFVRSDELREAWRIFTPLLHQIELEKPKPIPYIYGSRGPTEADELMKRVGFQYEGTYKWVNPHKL

[7] = target: T3, Histone-lysine N-methyltransferase NSD2 (Homo sapiens, UniProt O96028); assay type: biochemical
T3 sequence (O96028 whole entry): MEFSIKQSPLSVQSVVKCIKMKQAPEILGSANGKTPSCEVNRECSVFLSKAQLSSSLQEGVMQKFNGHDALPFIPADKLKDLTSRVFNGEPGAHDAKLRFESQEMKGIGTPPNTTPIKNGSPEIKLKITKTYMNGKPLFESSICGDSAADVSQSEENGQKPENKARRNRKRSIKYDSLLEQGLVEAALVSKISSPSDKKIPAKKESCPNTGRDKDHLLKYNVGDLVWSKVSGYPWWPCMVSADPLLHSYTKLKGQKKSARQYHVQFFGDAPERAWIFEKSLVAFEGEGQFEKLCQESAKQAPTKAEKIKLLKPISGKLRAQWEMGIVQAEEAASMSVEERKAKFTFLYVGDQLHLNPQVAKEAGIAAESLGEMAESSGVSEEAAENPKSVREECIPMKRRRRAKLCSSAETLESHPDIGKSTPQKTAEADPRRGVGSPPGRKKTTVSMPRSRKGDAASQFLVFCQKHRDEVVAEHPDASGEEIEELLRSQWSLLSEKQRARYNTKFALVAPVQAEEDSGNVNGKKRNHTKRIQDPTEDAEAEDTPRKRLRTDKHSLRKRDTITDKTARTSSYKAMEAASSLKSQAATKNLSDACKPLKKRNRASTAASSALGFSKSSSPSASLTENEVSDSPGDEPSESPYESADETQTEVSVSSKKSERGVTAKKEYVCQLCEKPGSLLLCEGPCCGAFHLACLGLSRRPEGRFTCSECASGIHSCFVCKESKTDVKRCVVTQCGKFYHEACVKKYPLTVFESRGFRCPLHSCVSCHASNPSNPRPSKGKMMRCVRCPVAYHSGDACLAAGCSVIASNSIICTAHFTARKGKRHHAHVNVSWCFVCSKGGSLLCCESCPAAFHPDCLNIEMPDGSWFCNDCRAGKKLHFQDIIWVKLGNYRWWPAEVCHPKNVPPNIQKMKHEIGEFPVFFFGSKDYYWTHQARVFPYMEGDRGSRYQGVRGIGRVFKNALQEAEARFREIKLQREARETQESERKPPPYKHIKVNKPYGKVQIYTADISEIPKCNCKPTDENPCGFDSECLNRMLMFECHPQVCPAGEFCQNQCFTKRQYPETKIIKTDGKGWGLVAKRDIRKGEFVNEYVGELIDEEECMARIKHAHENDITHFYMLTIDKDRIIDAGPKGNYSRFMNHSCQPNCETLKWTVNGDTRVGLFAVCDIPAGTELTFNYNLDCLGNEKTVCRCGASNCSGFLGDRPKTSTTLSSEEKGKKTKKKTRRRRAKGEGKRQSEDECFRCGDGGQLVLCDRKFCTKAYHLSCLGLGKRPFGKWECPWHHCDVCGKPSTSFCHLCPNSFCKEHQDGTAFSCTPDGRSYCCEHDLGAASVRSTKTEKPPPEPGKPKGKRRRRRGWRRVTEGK

[8] = target: Bifunctional protein GlmU (Mycobacterium tuberculosis, UniProt P9WMN3); test: Inhibitors of Mycobacterial Glucosamine-1-phosphate acetyl transferase (GlmU). Secondary screen.; parameters: species or system Mycobacterium tuberculosis H37Rv
[9] = target: T4, Tyrosine-protein phosphatase non-receptor type 7 (Homo sapiens, UniProt P35236); test: inhibition of hematopoietic tyrosine phosphatase HePTP – biochemical, set 2, SAR follow-up (AID 449736); assay type: functional
T4 sequence (P35236 whole entry): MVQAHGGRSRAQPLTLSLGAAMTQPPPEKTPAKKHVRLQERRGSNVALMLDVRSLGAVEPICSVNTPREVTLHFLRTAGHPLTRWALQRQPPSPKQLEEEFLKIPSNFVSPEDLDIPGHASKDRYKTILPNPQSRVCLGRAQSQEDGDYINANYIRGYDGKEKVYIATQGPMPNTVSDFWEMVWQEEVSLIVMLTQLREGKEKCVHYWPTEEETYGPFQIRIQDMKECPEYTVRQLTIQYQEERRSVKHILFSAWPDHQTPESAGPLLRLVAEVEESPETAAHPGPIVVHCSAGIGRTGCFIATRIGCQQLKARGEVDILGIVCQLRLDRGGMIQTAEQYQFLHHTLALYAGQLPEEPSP

Hexokinase-1 = target: T5, Hexokinase-1 (Homo sapiens, UniProt P19367); test: HK1 enzyme activation by HKDC1 hits – biochemical, selectivity assay for HKDC1 activator project, dose response (AID 504762); assay type: functional
T5 sequence (P19367 whole entry): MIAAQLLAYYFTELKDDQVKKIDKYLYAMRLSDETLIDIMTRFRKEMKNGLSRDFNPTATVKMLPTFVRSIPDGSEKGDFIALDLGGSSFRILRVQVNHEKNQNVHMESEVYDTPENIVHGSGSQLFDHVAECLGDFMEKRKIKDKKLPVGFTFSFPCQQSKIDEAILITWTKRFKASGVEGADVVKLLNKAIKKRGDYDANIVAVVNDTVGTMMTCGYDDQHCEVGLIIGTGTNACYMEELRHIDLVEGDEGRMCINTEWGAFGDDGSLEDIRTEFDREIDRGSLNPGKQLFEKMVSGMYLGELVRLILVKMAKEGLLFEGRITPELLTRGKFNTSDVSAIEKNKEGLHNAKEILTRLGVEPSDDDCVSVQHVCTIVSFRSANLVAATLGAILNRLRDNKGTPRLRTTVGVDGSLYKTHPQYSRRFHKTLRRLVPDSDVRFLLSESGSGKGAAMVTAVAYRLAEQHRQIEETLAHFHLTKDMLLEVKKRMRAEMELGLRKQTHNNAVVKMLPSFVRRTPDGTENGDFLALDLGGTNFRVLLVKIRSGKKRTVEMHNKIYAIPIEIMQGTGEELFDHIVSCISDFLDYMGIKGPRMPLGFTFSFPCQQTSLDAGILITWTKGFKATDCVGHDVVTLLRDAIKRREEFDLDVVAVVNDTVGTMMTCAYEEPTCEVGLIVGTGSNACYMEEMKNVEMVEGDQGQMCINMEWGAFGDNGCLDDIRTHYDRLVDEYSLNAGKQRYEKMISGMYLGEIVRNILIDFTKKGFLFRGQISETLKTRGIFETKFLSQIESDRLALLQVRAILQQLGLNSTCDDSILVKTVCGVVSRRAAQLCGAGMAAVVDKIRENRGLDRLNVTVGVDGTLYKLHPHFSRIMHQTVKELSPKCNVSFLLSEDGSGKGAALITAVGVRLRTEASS

Hexokinase HKDC1 = target: T6, Hexokinase HKDC1 (Homo sapiens, UniProt Q2TB90); test: activation of HKDC1 glucose phosphorylation – biochemical, W721R variant, dose response (AID 504730); assay type: functional
T6 sequence (Q2TB90 whole entry): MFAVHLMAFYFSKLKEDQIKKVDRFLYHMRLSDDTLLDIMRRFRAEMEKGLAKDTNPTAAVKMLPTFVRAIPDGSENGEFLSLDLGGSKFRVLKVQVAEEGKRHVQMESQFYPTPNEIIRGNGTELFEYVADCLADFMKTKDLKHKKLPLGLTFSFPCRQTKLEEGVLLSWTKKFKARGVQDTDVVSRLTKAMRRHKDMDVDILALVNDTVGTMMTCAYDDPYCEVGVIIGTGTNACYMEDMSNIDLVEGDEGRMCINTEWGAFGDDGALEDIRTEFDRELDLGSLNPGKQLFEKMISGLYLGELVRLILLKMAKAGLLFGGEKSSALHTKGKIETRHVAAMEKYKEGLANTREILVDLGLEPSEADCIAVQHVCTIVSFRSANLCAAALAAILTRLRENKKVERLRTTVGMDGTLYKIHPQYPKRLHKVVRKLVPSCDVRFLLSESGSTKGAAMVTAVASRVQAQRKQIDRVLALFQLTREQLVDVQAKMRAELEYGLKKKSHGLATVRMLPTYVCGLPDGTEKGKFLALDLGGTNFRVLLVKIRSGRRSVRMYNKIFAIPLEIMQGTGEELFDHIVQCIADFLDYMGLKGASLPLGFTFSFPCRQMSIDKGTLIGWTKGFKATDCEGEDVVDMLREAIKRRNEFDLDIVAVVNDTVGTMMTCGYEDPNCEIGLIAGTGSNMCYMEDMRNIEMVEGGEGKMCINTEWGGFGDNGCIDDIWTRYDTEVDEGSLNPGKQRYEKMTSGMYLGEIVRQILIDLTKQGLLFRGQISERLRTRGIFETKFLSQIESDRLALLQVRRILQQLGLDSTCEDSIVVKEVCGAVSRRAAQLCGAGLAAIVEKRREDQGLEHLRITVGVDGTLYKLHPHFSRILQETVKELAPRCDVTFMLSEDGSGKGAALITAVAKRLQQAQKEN

[10] = target: DNA dC->dU-editing enzyme APOBEC-3G (Homo sapiens, UniProt Q9HC16); assay type: functional;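 further: Dose-response counterscreen measuring inhibition of APOBEC3G DNA deaminase activity, run while confirming APOBEC3A inhibitors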
[11] = target: DNA dC->dU-editing enzyme APOBEC-3A (Homo sapiens, UniProt P31941); test: Dose Response confirmation of small molecule APOBEC3A DNA Deaminase Inhibitors via a fluorescence-based single-stranded DNA deaminase assay. [Related pubchem assays (depositor defined):AID493011, AID493024]; assay type: functional
Chain of DNA dC->dU-editing enzyme APOBEC-3A (P31941 whole entry): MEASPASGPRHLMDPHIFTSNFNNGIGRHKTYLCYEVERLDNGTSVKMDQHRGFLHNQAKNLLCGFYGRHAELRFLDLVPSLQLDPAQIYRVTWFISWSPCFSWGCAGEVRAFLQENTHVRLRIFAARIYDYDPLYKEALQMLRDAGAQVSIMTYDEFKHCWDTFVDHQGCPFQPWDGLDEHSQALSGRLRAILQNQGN

Coagulation factor XII = target: T7, Coagulation factor XII (Homo sapiens, UniProt P00748); test: Factor XIIa Dose Response Confirmation from Single Well HTS. [Related pubchem assays (depositor defined):AID701]; assay type: functional
T7 sequence (P00748 whole entry): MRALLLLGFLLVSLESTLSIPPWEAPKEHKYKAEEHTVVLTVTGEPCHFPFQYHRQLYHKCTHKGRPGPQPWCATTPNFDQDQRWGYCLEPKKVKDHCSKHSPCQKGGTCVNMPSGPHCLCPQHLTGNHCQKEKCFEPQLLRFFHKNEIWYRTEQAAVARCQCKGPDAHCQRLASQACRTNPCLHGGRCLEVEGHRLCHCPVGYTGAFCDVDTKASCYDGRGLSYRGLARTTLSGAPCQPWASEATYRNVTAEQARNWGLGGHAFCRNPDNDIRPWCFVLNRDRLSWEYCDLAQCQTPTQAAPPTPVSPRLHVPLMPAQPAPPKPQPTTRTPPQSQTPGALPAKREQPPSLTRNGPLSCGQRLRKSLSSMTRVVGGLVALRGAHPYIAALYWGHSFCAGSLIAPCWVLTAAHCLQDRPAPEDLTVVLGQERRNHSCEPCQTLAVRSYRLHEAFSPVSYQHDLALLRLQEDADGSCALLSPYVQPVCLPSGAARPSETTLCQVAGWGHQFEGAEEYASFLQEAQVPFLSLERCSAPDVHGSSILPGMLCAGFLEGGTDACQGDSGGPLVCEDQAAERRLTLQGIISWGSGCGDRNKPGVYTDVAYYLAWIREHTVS

Integrin alpha-L = Integrin alpha-L (Mus musculus, UniProt P24063); test: modulators of CD8 T cell-vesicle binding, dose response, powder samples, mouse 2C CD8+ cells (AID 504565); assay type: functional
T-cell = test: loss of vesicle association with mouse CD8+ T cells – mouse 2C CD8+ T cells, flow cytometry, dose response (AID 485284); assay type: functional

T1 sequence (Q00975 whole entry): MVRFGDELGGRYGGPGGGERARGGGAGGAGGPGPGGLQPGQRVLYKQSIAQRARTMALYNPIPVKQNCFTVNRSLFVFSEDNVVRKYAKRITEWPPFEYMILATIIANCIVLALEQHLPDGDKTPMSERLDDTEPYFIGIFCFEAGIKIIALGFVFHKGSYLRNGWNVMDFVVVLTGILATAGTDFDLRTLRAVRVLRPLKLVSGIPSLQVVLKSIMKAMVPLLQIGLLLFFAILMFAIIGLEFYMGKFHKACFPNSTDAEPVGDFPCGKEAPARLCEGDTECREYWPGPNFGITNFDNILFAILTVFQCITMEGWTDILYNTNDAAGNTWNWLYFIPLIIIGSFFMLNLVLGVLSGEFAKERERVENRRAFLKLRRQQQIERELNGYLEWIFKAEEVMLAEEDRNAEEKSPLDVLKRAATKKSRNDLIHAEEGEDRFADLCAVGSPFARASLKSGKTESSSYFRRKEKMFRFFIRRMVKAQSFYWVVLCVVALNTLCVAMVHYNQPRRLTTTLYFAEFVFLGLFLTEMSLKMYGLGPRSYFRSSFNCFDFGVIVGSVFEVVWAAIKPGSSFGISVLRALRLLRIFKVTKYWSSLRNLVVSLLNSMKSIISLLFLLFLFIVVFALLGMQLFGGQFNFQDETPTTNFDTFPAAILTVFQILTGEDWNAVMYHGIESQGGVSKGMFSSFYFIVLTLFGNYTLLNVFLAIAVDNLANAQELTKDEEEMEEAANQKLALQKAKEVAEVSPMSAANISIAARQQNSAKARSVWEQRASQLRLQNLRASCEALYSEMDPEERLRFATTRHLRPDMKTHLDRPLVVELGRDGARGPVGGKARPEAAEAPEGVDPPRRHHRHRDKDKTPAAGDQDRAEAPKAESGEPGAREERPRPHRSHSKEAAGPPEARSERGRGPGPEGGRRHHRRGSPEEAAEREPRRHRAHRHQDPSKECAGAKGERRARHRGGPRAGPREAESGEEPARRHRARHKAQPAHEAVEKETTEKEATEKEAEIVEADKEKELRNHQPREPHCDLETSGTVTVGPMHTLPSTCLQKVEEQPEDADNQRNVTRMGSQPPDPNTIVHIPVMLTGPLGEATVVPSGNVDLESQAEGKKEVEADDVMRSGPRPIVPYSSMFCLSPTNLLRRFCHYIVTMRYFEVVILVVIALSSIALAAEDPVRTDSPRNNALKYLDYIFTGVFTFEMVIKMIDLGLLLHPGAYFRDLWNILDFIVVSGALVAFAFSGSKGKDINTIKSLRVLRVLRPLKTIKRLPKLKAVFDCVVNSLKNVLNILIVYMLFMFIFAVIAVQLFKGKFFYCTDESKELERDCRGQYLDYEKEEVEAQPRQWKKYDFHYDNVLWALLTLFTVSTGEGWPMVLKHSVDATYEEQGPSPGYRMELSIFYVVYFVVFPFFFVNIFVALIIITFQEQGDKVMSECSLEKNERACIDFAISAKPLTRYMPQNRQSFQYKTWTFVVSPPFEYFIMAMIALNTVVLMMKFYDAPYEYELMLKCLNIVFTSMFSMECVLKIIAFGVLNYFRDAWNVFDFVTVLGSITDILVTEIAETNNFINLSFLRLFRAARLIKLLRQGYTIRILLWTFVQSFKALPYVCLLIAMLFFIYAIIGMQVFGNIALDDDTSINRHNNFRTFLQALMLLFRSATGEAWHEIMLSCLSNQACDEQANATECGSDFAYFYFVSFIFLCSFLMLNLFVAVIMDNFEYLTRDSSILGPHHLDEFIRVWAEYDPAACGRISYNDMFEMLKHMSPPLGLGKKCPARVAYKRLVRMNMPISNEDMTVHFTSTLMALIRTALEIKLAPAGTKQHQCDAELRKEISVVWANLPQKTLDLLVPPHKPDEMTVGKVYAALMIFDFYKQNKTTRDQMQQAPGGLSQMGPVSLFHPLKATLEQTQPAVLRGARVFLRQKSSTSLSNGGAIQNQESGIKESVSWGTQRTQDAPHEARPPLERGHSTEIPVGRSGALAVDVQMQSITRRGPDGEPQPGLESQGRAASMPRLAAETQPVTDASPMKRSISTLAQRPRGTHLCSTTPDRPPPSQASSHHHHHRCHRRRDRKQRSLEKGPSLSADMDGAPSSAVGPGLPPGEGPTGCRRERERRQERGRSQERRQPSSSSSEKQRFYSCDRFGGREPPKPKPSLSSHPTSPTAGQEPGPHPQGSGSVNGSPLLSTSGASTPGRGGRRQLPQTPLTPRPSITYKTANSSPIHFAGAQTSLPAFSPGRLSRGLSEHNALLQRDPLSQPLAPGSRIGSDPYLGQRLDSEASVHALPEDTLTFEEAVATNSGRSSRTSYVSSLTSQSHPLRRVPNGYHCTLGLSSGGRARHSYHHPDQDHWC
T1 sequence (Q02410 whole entry): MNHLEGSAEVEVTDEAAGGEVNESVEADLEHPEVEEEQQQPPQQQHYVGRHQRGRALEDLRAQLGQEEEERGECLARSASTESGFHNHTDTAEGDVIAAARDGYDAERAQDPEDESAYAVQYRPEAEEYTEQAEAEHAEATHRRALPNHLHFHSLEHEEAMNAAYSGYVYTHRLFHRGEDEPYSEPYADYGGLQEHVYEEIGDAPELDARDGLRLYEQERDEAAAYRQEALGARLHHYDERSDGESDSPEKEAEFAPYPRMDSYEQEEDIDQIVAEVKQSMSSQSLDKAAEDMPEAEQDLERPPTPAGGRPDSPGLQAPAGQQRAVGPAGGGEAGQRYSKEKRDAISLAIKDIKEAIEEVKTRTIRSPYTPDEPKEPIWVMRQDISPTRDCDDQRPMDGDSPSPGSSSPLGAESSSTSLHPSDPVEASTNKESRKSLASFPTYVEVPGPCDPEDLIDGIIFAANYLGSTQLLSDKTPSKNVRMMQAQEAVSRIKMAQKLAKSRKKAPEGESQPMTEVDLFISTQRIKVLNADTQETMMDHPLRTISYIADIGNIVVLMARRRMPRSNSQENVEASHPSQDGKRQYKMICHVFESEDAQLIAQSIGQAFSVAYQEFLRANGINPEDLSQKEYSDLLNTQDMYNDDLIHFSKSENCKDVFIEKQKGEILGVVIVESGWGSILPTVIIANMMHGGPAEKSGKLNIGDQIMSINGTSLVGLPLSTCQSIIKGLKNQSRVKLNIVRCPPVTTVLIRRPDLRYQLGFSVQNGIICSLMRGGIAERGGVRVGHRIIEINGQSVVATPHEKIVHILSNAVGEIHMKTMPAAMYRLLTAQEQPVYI

SMILES: Oc1ccc(/C=N/N=C(c2ccccc2)c2ccccc2)c(O)c1O
- IC50 [1]: 10.8 µM (active)
- CC50 (Vero): 31.3 µM (active)
- IC50 [2]: > 64 µM (inactive)
- IC50 [3]: 12.1 µM (active)
- IC50 [4]: 4.44 µM (active)
- IC50 (Genome polyprotein): 23.4 µM (active)
- IC50 [5]: 3.27 µM (active)
- IC50 [6]: 79.2 µM (inactive)
- AC50 [7]: 0.635 µM (active)
- IC50 [8]: 19.3 µM (active)

SMILES: Cc1ccc(NC(=O)Nc2ccc(S(N)(=O)=O)cc2)cc1
- IC50 [9]: 47.6 µM (active)

SMILES: Nc1nc(-c2cccc(Br)c2)cs1
- EC50 (Hexokinase-1): 49.3 µM (inactive)
- EC50 (Hexokinase HKDC1): 31.8 µM (inactive)

SMILES: CC(C)C1Nc2ccc(C(=O)O)cc2C2C=CCC21 (stereo unspecified)
- CC50 (Vero): > 40 µM (active)
- IC50 [10]: 16.2 µM (active)
- IC50 (Genome polyprotein): 38.7 µM (active)
- IC50 [11]: 21.8 µM (active)
- AC50 [7]: > 20 µM (inactive)

SMILES: Cc1cc(NC(=O)COC(=O)c2c(C)nn(Cc3ccccc3)c2C)no1
- IC50 (Coagulation factor XII): > 50 µM (inactive)

SMILES: Cc1cc(Cl)c(OCCCSc2nc(C)cc(O)n2)c(Br)c1
- EC50 (Integrin alpha-L): 17.1 µM (active)
- EC50 (T-cell): 56.6 µM (inactive)
